# Target: T1, human cloned 5-HT6 receptors (Homo sapiens, UniProt P50406)
# T1 construct: expressed in transfected cells; host or cells: HeLa cells
# Experiment: 5-HT6 binding affinity, [3H]-LSD displacement
# Settings: not given
# Method: The affinity of test compounds for the serotonin 5-HT6 receptor is evaluated in the following manner. Cultured Hela cells expressing human cloned 5-HT6 receptors are harvested and centrifuged at low speed (1,000×g) for 10.0 min to remove the culture media. The harvested cells are suspended in half volume of fresh physiological phosphate buffered saline solution and recentrifuged at the same speed. This operation is repeated. The collected cells are then homogenized in ten volumes of 50 mM Tris.HCl (pH 7.4) and 0.5 mM EDTA. The homogenate is centrifuged at 40,000×g for 30.0 min and the precipitate is collected. The obtained pellet is resuspended in 10 volumes of Tris.HCl buffer and recentrifuged at the same speed. The final pellet is suspended in a small volume of Tris.HCl buffer and the tissue protein content is determined in aliquots of 10–25 μl volumes. Bovine Serum Albumin is used as the standard in the protein determination according to the method described in Lowry et al., J. Biol. Chem., 193:265 (1951). The volume of the suspended cell membranes is adjusted to give a tissue protein concentration of 1.0 mg/ml of suspension. The prepared membrane suspension (10 times concentrated) is aliquoted in 1.0 ml volumes and stored at −70° C. until used in subsequent binding experiments.
# The reaction is allowed to proceed in the dark for 120 min at room temperature, at which time, the bound ligand-receptor complex is filtered off on a 96 well unifilter with a Packard Filtermate® 196 Harvester. The bound complex caught on the filter disk is allowed to air dry and the radioactivity is measured in a Packard TopCount® equipped with six photomultiplier detectors, after the addition of 40.0 μl Microscint®−20 scintillant to each shallow well. The unifilter plate is heat-sealed and counted in a PackardTopCount® with a tritium efficiency of 31.0%.
# Binding in the presence of varying concentrations of test compound is expressed as a percentage of specific binding in the absence of test compound. The results are plotted as log % bound versus log concentration of test compound. […] A linear regression line of data points is plotted, from which the IC50 value is determined and the Ki value is determined based upon the following equation: Ki=IC50/(1+L/KD) where L is the concentration of the radioactive ligand used and KD is the dissociation constant of the ligand for the receptor, both expressed in nM.
# T1 sequence (P50406 whole entry): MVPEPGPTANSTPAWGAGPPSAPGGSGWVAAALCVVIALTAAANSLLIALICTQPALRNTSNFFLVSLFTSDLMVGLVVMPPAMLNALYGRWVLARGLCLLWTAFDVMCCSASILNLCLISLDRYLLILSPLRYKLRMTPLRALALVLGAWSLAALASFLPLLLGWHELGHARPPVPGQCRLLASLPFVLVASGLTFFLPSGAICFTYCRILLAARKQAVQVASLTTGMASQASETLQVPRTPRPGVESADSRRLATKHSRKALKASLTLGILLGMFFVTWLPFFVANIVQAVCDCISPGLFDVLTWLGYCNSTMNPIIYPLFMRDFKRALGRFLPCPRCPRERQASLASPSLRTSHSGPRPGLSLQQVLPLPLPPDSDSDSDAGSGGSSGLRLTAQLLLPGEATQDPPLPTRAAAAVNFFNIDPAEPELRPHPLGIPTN
row,Compound,Ki [nM]
1,"NCCc1cn(S(=O)(=O)c2ccccc2)c2sccc12 [Example 8, 2-[6-(phenylsulfonyl)-6H-thieno[2,3-b]pyrrol-4-yl]ethylamine]",7.5 ± 0.9

# Same assay, conditions: membranes of Hela cells expressing human cloned 5-HT6 receptors; [3H]-LSD 3.0 nM; 120 min, room temperature; read-out: 5-HT6 Binding Ki
row,Ki [nM],Compound
1,1.8 ± 0.1,"CN(C)CCc1cn(S(=O)(=O)c2ccccc2F)c2sccc12 [Example 46, N,N-dimethyl-2-{[6-(2-fluorophenyl)sulfonyl]-6H-thieno[2,3-b]pyrrol-4-yl}ethylamine]"
2,16.7 ± 2.4,"NCCc1cn(S(=O)(=O)c2ccc3ccccc3c2)c2sccc12 [Example 13, 2-[6-(2-naphthylsulfonyl)-6H-thieno[2,3-b]pyrrol-4-yl]ethylamine]"
3,3 ± 0.2,CN(C)CCc1cn(S(=O)(=O)c2cccc(C(F)(F)F)c2)c2ccsc12 [Example 71]
4,1.3 ± 0.1,COc1cccc(S(=O)(=O)n2cc(CCN(C)C)c3sccc32)c1 [Example 76]
5,7.8 ± 0.4,"Cc1cccc(S(=O)(=O)n2cc(CCN)c3ccsc32)c1 [Example 29, 2-{[6-(3-methylphenyl)sulfonyl]-6H-thieno[2,3-b]pyrrol-4-yl}ethylamine]"
6,3.4 ± 0.6,"NCCc1cn(S(=O)(=O)c2cnc3sccn23)c2sccc12 [Example 19, 2-{[6-(imidazo[2,1-b][1,3]thiazol-5-yl)sulfonyl]-6H-thieno[2,3-b]pyrrol-4}ethylamine]"
7,3.7 ± 0.1,"COc1ccc(S(=O)(=O)n2cc(CCN(C)C)c3ccsc32)cc1 [Example 63, N,N-dimethyl-2-{[6-(4-methoxyphenyl)sulfonyl]-6H-thieno[2,3-b]pyrrol-4-yl}ethyl-amine]"
8,9.2 ± 0.8,"NCCc1cn(S(=O)(=O)c2cccc3ccccc23)c2sccc12 [Example 28, 2-[6-(1-naphthylsulfonyl)-6H-thieno[2,3-b]pyrrol-4-yl]ethylamine]"
9,24.7 ± 1.7,"COc1ccc(S(=O)(=O)n2cc(CCN)c3ccsc32)cc1 [Example 33, 2-{[6-(4-methoxyphenyl)sulfonyl]-6H-thieno[2,3-b]pyrrol-4-yl}ethylamine]"

# More lines, now with the values behind:
row,Compound,Ki [nM]
1,"NCCc1cn(S(=O)(=O)c2cccc(Br)c2)c2sccc12 [Example 24, 2-{[6-(3-bromophenyl)sulfonyl]-6H-thieno[2,3-b]pyrrol-4-yl}ethylamine]",9 ± 0.5
2,"2-{[6-(4-chlorophenyl)sulfonyl]-6H-thieno[2,3-b]pyrrol-4-yl}ethylamine [Example 22]",13.3 ± 0.7
3,"2-{[6-(2-chloroimidazo[1,2-a]pyrid-3-yl)sulfonyl]-6H-thieno[2,3-b]pyrrol-4-yl}-ethylamine [Example 20]",11.3 ± 0.3
4,"NCCc1cn(S(=O)(=O)c2cccc(F)c2)c2sccc12 [Example 17, 2-{[6-(3-fluorophenyl)sulfonyl]-6H-thieno[2,3-b]pyrrol-4-yl}ethylamine]",9.3 ± 0.7
5,"NCCc1cn(S(=O)(=O)c2ccc(Br)s2)c2sccc12 [Example 25, 2-{[6-(5-bromothien-2-yl)sulfonyl]-6H-thieno[2,3-b]pyrrol-4-yl}ethylamine]",17.7 ± 3.2
6,"CN(C)CCc1cn(S(=O)(=O)c2cccc3cccnc23)c2sccc12 [Example 61, N,N-dimethyl-2-{[6-(8-quinolinyl)sulfonyl]-6H-thieno[2,3-b]pyrrol-4-yl}ethylamine]",4.7 ± 0.1
7,"N,N-dimethyl-2-{[6-(4-chlorophenyl)sulfonyl]-6H-thieno[2,3-b]pyrrol-4-yl}ethylamine [Example 52]",2.6 ± 0.2
8,"N,N-dimethyl-2-{[6-(2-chlorophenyl)sulfonyl]-6H-thieno[2,3-b]pyrrol-4-yl}ethylamine [Example 48]",5.5 ± 0.5
9,"2-{[6-(2-chlorophenyl)sulfonyl]-6H-thieno[2,3-b]pyrrol-4-yl}ethylamine [Example 18]",13 ± 1.5
10,"N,N-dimethyl-2-{[6-(5-bromothien-2-yl)sulfonyl]-6H-thieno[2,3-b]pyrrol-4-ylethyl}-amine [Example 55]",1.1 ± 0.1
11,"2-{[4-(2-chlorophenyl)sulfonyl]-4H-thieno[3,2-b]pyrrol-6-yl}ethylamine [Example 69]",2.7 ± 0.2

# From patent US7220756B2, “N-sulfonylheterocyclopyrrolyl-alkylamine compounds as 5-hydroxytryptamine-6 ligands” (Wyeth, priority 2003, dated 2007)
